# Test results taken from patent US20150141375A1 (priority 2009, published 2015).
# Several values for one entry are separate records, joined by “and”; a condition that tells them apart may be missing. Identical values can stand only once. Entries after “also recorded” stand apart in the source; their conditions may differ.
# Key:
# [1] = tested on: adenovirus; assay: First fifteen EIND patients: adenovirus; conditions: individual patients
# [2] = tested on: CMV
# [3] = tested on: BK Virus; conditions: has been reported; read-out: EC50 for BK virus infection; cited from earlier work
# [4] = tested on: EBV; assay: In vitro potency against dsDNA viruses: EBV; assay type: cell-based
# [5] = tested on: adenovirus; assay: Pediatric bone marrow transplant recipient with disseminated adenovirus infection
# [6] = tested on: HCMV; assay: HCMV viral DNA accumulation in HFF cells, real time PCR, 7 days; assay type: cell-based
# [7] = tested on: BKV(Dunlop); assay: BKV(Dunlop) replication in primary human RPTECs (qPCR, RT-qPCR, western blot, immunofluorescence); assay type: cell-based, BK virus; conditions: for antiviral activity of stored stock compared to freshly prepared drug: tested at 0.31 uM
# Description: RPTECs were infected with BKV(Dunlop). CMX001 was added before and 2 h postinfection (hpi). Cells and supernatants were harvested 24-72 hpi. BKV replication was examined by TaqMan assays, western blotting, IF staining and viability of RPTECs was examined by WST-1 assay, BrdU incorporation and a TaqMan assay.
# Primary human renal proximal tubule epithelial cells (RPTECs), BKV(Dunlop) and all methods as previously described by Bernhoff et al (See Bernhoff et al., Cidofovir inhibits polyomavirus BK replication in human renal tubular cells downstream of viral early gene expression, Am J Transplant 8, 1413-1422 (2008).) Only one exception, quantitative PCR (qPCR) to quantify intracellular or extracellular BKV DNA load was performed with a different primer/probe set also targeting the LTag gene (See Hirsch, et al., J. Prospective study of polyomavirus type BK replication and nephropathy in renal-transplant recipients, N Engl J Med., 347, 488-496 (2002)). Before each experiment, CMX001 was freshly dissolved to 1 mg/ml in methanol/water/ammonium hydroxide (50/50/2). It was further diluted in RPTEC growth medium.
# Before each experiment, CMX001 was freshly dissolved to 1 mg/ml in methanol/water/ammonium hydroxide (50/50/2) and further diluted in RPTEC growth medium. About 50% confluent RPTECs were infected with BKV (Dunlop) MOI 1. After 2 h incubation at 37° C., the virus was replaced with fresh medium with or without CMX001 unless otherwise stated.
# At 24, 48 and 72 hpi cells were lysed and total RNA extracted using the mirVana PARIS kit (Ambion). RNA samples were treated with DNase turbo (Ambion) to remove residual DNA before the RNA quality was checked by agarose gel electrophoresis and RNA concentration was determined. cDNA was generated from 250 ng RNA per sample using the High Capacity cDNA kit (Applied Biosystems).
# To assay extracellular BKV loads, cell culture supernatants were harvested at 24, 48 and 72 hpi and frozen in −70° C. until automatic extraction by a robot (GenoM-48, Qiagen, www.qiagen.com). For intracellular BKV loads, cells were washed, trypsinized and pelleted at 220 g for 10 min, resuspended in G2 buffer from the MagAttract DNA Mini M48 kit (Qiagen) and frozen at −70° C. until extraction with the same robot.
# To quantify intracellular or extracellular BKV DNA load, a quantitative PCR (qPCR) with primers and probe targeting the large T-antigen (LT-ag) gene was used. For normalization of intracellular BKV DNA each sample was analyzed in parallel by the qPCR for the gene for aspartoacylase (ACY) to correct for cellular DNA.
# Cells were lysed in Cell Disruption buffer (mirVana PARIS kit, Ambion) 24, 48 and 72 hpi and stored at −70° C. until separation with SDS polyacrylamidegel electrophoresis (SDS-PAGE) followed by blotting onto PVDF membrane. Detection of BKV and cellular proteins was performed with polyclonal rabbit antiserum directed against LT-ag (1:2000), VP1 (1:10000), or agno (1:10000) (1, 27) and a monoclonal mouse antibody directed against GAPDH (Ab8245; 1:5000, Abcam, www.abcam.com) followed by anti-rabbit and anti-mouse infrared dye-labeled secondary antibodies (IR Dye 800, Rockland, www.rockland-inc.com and Alexa Fluor 680, Invitrogen, www.invitrogen.com) both 1:5000 before detection with Licor Odyssey Infrared detection system.
# Cells were washed in PBS, methanol fixed, blocked with 3% goat-serum in PBS for 30 min, followed by subsequently incubation with primary (37° C.) and secondary (r.t.) antibodies for 30 min. Primary antibodies were monoclonal anti-SV40 LT-ag antibody (Ab-2 Pab416; 1:100, Chemicon, www.chemicon.com) and polyclonal rabbit antiserum directed against agno or VP1 (both 1:1000). The secondary antibodies were anti-mouse conjugated with AlexaFluor 568 and anti-rabbit conjugated with AlexaFluor 488 (1:500; Molecular Probes, www.invitrogen.com). Nuclei were labeled with DRAQ5™ (Biostatus, www.biostatus.com). […]
smiles,measurement,setting,value
"CCCCCCCCCCCCCCCCOCCCOP(=O)(O)CO[C@H](CO)Cn1ccc(N)nc1=O [CMX001, Hexadecyloxypropyl-cidofovir]",AdV viremia after 1st week,[1],3.2 Log 10 copies/mL and 5.4 Log 10 copies/mL and 5.0 Log 10 copies/mL and 2.3 Log 10 copies/mL and 7.4 Log 10 copies/mL and 3.4 Log 10 copies/mL and 5.2 Log 10 copies/mL and 2.0 Log 10 copies/mL
same,"AdV viremia after 1st week, change from pre-RX",[1],4.0 Log 10 copies/mL and 1.0 Log 10 copies/mL and 0.5 Log 10 copies/mL and 1.9 Log 10 copies/mL and 0.7 Log 10 copies/mL and 2.0 Log 10 copies/mL and 1.3 Log 10 copies/mL and 2.5 Log 10 copies/mL
same,AdV viremia after 2nd week,[1],2.2 Log 10 copies/mL (2×) and 6.2 Log 10 copies/mL (2×) and 4.1 Log 10 copies/mL and 7.0 Log 10 copies/mL and 3.3 Log 10 copies/mL and 0 Log 10 copies/mL
same,"AdV viremia after 2nd week, change from pre-RX",[1],5.0 Log 10 copies/mL and 0.2 Log 10 copies/mL and 1.3 Log 10 copies/mL and 2.0 Log 10 copies/mL and 1.1 Log 10 copies/mL and 2.1 Log 10 copies/mL and 0.3 Log 10 copies/mL and 4.5 Log 10 copies/mL
same,Outcome,[1],Survived; also recorded: Death
same,average reduction in CMV by PCR,[2]; 2 of 5 patients without UL54 mutations,1.2 log 10
same,median reduction in VL,"[2]; 4 weeks, 7 patients",greater than 1.2 log 10
same,1 log reduction in viremia at the last time point,[2]; patients with UL54 mutation (L501F and A987G),Neither of two patients
same,complete response,[2]; patients without mutations in CMV UL54 (3 of 5),60%
same,dose adjustment for kidney function,[2]; two patients with pre-existing renal insufficiency,no dose adjustment was needed based on kidney function
same,EC50,[3],140 nM
same,Enhanced Activity,[4]; CMX001 versus cidofovir EC50,>4250
same,EC50,"[4]; human gammaherpesvirus 4, Dardi",40 nM
same,tolerability,[5]; 2-3 mg/kg,well tolerated
same,"peak cidofovir concentrations, fold lower than label for 5 mg/kg Vistide","[5]; female, human, plasma, oral",more than 100 fold
same,decrease in viral load,[5]; oral CMX001,8 log
same,concentration reducing the quantity of viral DNA by 10-fold,[6],less than 1 nanomolar
same,reduction of accumulation of viral DNA,[6],at least three orders of magnitude
same,fold reduction of viral DNA,[6]; CMX001 10 nanomolar,1000 fold
same,amplification of viral DNA,[6]; CMX001 above 10 nM,essentially eliminated the amplification of viral DNA
same,"BKV-infected cells, immunofluorescence","[7]; 10 μM CMX001, 72 hpi",no BKV-infected cell was observed
same,IC90,"[7]; Betapolyomavirus hominis, RPTEC, RPTECs, 72 h p.i., viral input subtracted, read-out: IC90, extracellular BKV load",310 nM
same,reduction of late protein expression,[7]; CMX001 0.31 μM,about 70%
same,reduction of BKV load at 96 hpi,[7]; CMX001 0.31 μM for 24 h,approximately 90%
same,effect on early gene (LT-ag) expression,"[7]; CMX001 0.31 μM, 24 hpi",no effect; also recorded: No difference
same,reduction of late gene expression,"[7]; CMX001 0.31 μM, 48 and 72 hpi",70-90%
same,reduction of BKV DNA replication (intracellular BKV load),"[7]; CMX001 0.31 μM, 48 hpi",94% and 90%
same,reduction of LT-ag mRNA,"[7]; CMX001 0.31 μM, 48 hpi",33%
same,"reduction of agno, western blotting","[7]; CMX001 0.31 μM, 48 hpi",97%
same,reduction of late mRNA levels,"[7]; CMX001 0.31 μM, 48 hpi",93%
same,reduction of BKV DNA replication (intracellular BKV load),"[7]; CMX001 0.31 μM, 72 hpi",63% and 91%
same,reduction of LT-ag mRNA,"[7]; CMX001 0.31 μM, 72 hpi",64%
same,"reduction of agno, western blotting","[7]; CMX001 0.31 μM, 72 hpi",96%
same,reduction of late mRNA levels,"[7]; CMX001 0.31 μM, 72 hpi",82%
same,"decrease of VP1, western blotting","[7]; CMX001 0.31 μM, 48 h p.i.",86% and 85%
same,reduction of LTag staining,"[7]; CMX001 0.31 μM, 48 h p.i.",33%
same,"decrease of VP1, western blotting","[7]; CMX001 0.31 μM, 72 h p.i.",63% and 96%
same,reduction of LTag staining,"[7]; CMX001 0.31 μM, 72 h p.i.",30%
same,decrease in BKV agnoprotein expressing cells,"[7]; CMX001 0.31 uM, immunofluorescence 72 h p.i.",approximately 60%
same,exposure time for IC-90 of BKV progeny loads at 96 hpi,"[7]; CMX001 0.31 μM, CDV 40 μg/mL",24 h
same,reduction of viral load by pre-treatment,"[7]; pre-treatment 23-24 h until one hour before infection, BKV load 72 h p.i.",about 50%
same,effect of pre-treatment on BKV load,"[7]; pre-treatment 4 hours, ending 20 hours before infection",hardly any effect; also recorded: did not inhibit BKV replication
same,antiviral activity of stored stock compared to freshly prepared drug,[7]; stock 1 mg/ml one week at 4° C.,less than 60%
same,antiviral activity of stored stock compared to freshly prepared drug,[7]; stock 1 mg/ml one week at −20° C.,approximately 90%
